{
  "source": "patent US20210177862A1",
  "about": "“METHOD FOR TREATING NEUROCOGNITIVE DYSFUNCTION” (Tonix Pharma Holdings Limited, priority 2008, published 2021)",
  "key": {"[1]": {"tested_on": "pulmonary sarcoidosis", "format": "in vivo, human", "conditions": "prednisone tapered from 40 mg to 25 mg a day", "source_text": "(§1) Patient was diagnosed with a medical condition known as pulmonary sarcoidosis in which immune cells (lymphocytes and macrophages) are abnormally activated and accumulate in the lung, progressively destroying the architecture and functional capacity of lung tissue. Treatment is necessary to prevent progression of the disease and loss of more pulmonary functional capacity. Standard treatment is with systemic corticosteroids due to the capacity of corticosteroids for suppressing immune function. Patient was started on prednisone 40 mg by mouth each morning, with a plan to taper the dose by 5 mg every two weeks until at 25 mg a day. After three months the level of response to corticosteroids would be assessed by repeat pulmonary function tests and chest x-ray. If the disease process was responsive to corticosteroids, the treatment would be continued to finish a full year on about 25 mg a day.\nThe memory disturbance was profound and sharply contrasted with patient's normal memory function. The “foggy” feeling was present all day long, and was similar to the feeling of having taken a sedating antihistamine like diphenhydramine (Benadryl). Patient found they could only concentrate with much effort, with rapidly developing mental fatigue preventing sustained efforts. […]"}, "[2]": {"tested_on": "corticosteroid-induced cognitive impairment", "experiment": "Case report (Example 1): tianeptine given to a patient with cognitive side effects from prednisone therapy", "format": "in vivo, human", "source_text": "as §1\nThe memory disturbance was profound and sharply contrasted with patient's normal memory function. The “foggy” feeling was present all day long, and was similar to the feeling of having taken a sedating antihistamine like diphenhydramine (Benadryl). Patient found they could only concentrate with much effort, with rapidly developing mental fatigue preventing sustained efforts. Examples of memory impairment resulting from the prednisone were much like some of the memory disturbance seen in Alzheimer's dementia in which there is impairment in the process of consolidation of short term memories into long term memories, a process known to depend on intact hippocampal function.\nPatient began tianeptine (Stablon) at 12.5 mg, one pill in the morning. Four days later, patient increased the dose to 12.5 mg twice a day, finally, two days after the prior increase, patient increased the dose to 25 mg each morning and 12.5 mg each evening. In the first several days taking tianeptine, patient noted the “foggy” feeling had gone away.\nAlthough beginning tianeptine correlated with the rapid improvement in cognitive function, it was uncertain whether the tianeptine was responsible for the improvement.\nThere was the alternate possibility that patient was simply adjusting to the corticosteroids, with reduction in the cognitive side effects manifesting over the first several weeks after beginning corticosteroids. Nonetheless, patient continued to take the tianeptine. Also, it seemed possible that prednisone at 40 mg a day had been producing worse side effects than the lower doses of 35 mg, 30 mg, and 25 mg a day patient had tapered down to after starting the tianeptine.\nPatient stopped tianeptine treatment two months later, tapering the dose over three days. Within about 2-3 days after the final dose of tianeptine, patient experienced the gradual emergence of the same cognitive side effects of the corticosteroids that patient had been experiencing in before initial tianeptine treatment including poor memory, extreme difficulty concentrating and sustaining mental effort, and the general “foggy” feeling once again pervading. This continued up for two weeks when patient restarted tianeptine treatment. […] Patient has continued on tianeptine 25 mg each morning and 12.5 mg each evening since then."}, "[3]": {"conditions": "patient on prednisone, first several days taking tianeptine"}},
  "data": [
    {"smiles": "C[C@]12C=CC(=O)C=C1CC[C@@H]1[C@@H]2C(=O)C[C@@]2(C)[C@H]1CC[C@]2(O)C(=O)CO", "note": "[prednisone]", "values": [
      {"measurement": "follow-up pulmonary function tests", "setting": "[1]", "value": "indicated improvement"}
    ]},
    {"smiles": "CN1c2ccccc2C(NCCCCCCC(=O)O)c2ccc(Cl)cc2S1(=O)=O", "note": "(stereo not drawn) [tianeptine, 7-[(3-chloro-6,11-dihydro-6-methyl-dibenzo[c,f][1,2]thiazepin-11-yl)amino] heptanoic acid S,S-dioxide]", "values": [
      {"measurement": "time frame of effect after initiation of treatment", "setting": "[2]; mitigation of corticosteroid cognitive side effects", "value": "24 to 72", "unit": "h"},
      {"measurement": "effect of tianeptine in mitigating the side effects of the corticosteroids", "setting": "[2]; off/on tianeptine episode, 25 mg each morning and 12.5 mg each evening", "value": "large effect"},
      {"measurement": "ability to concentrate", "setting": "[2]; [3]", "value": "appeared to normalize"},
      {"measurement": "episodic memory", "setting": "[2]; [3]", "value": "significantly improved"},
      {"measurement": "\"foggy\" feeling", "setting": "[2]; patient on prednisone, first several days taking tianeptine 12.5 mg up to 25 mg morning + 12.5 mg evening, oral", "value": "had gone away"},
      {"measurement": "time after restarting tianeptine to definite improvement", "setting": "[2]; restart after two weeks off tianeptine, on prednisone", "value": "≤ 24", "unit": "h"},
      {"measurement": "cognitive function after restarting tianeptine", "setting": "[2]; three days after restart, on prednisone", "value": "pretty much returned to normal baseline"},
      {"measurement": "time after final dose of tianeptine to gradual emergence of the same cognitive side effects of the corticosteroids", "setting": "[2]; tianeptine stopped (tapered over three days), prednisone 25 mg a day continued", "value": "2 to 3", "unit": "days"}
    ]}
  ]
}
